Results as given in ChEMBL document CHEMBL5137105, “Tricyclic Carboxamide Derivatives as PRMT5 Inhibitors for Treating Cancer” (ACS Med Chem Lett, 2022).

Assay: Antiproliferative activity against human HCT116-MTAP null cells assessed as reduction in cell viability incubated for 6 days by CellTiter-Glo luminescent assay
Assay type: functional, cell-based
Settings: 144 h

SMILES	IC50 [nM]
Cn1cc(N(Cc2ccc(C(F)(F)F)cn2)C(=O)c2cc3c4c(c(N)nc3cc2Cl)COC4)cn1	6
C[C@H](c1ncccn1)N(Cc1ccc(C(F)(F)F)cn1)C(=O)c1ccc2nc(N)c3c(c2c1)CCC3	6
Cn1ncc2c(N)nc3cc(F)c(C(=O)N(Cc4ccc(C(F)(F)F)cn4)C4CCC4)cc3c21	5
C[C@H](c1ncccn1)N(Cc1ccc(C#N)c(Cl)n1)C(=O)c1ccc2nc(N)c3c(c2c1)COC3	5
Cn1cc(N(Cc2ccc(C(F)(F)F)cn2)C(=O)c2cc3c(cc2F)nc(N)c2cnn(C)c23)cn1	5
CC1OCc2c1c(N)nc1ccc(C(=O)N(Cc3ccc(C(F)(F)F)cn3)Cc3ccnc4[nH]ccc34)cc21 (stereo unspecified)	6
